In ChEMBL document CHEMBL1201862, “PubChem BioAssay data set” (2004):
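Five concentrations, 48 hours, 96-well plates. The concentration for 50% growth inhibition is given as GI50.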 Calls of active or inactive are those of the source. Rule as the data show it: active = GI50 up to about 1.1 µM and inactive = higher.

Experiments:
Test in all cases: NCI-60 cell line screen, 48 h
UACC-257 = test system: UACC-257
HL-60 = test system: HL-60
HOP-92 = test system: HOP-92
M14 = test system: M14
OVCAR-5 = test system: OVCAR-5
Malme-3M = test system: Malme-3M
786-0 = test system: 786-0
SK-MEL-28 = test system: SK-MEL-28
NCI-H23 = test system: NCI-H23
PC-3 = test system: PC-3
U-251 = test system: U-251
MOLT-4 = test system: MOLT-4
OVCAR-8 = test system: OVCAR-8
SNB-75 = test system: SNB-75
OVCAR-4 = test system: OVCAR-4
SR = test system: SR
LOX IMVI = test system: LOX IMVI
CAKI-1 = test system: CAKI-1
SF-539 = test system: SF-539
A498 = test system: A498

Row | Compound | GI50 (UACC-257) | GI50 (HL-60) | GI50 (HOP-92) | GI50 (M14) | GI50 (OVCAR-5) | GI50 (Malme-3M) | GI50 (786-0) | GI50 (SK-MEL-28) | GI50 (NCI-H23) | GI50 (PC-3) | GI50 (U-251) | GI50 (MOLT-4) | GI50 (OVCAR-8) | GI50 (SNB-75) | GI50 (OVCAR-4) | GI50 (SR) | GI50 (LOX IMVI) | GI50 (CAKI-1) | GI50 (SF-539) | GI50 (A498)
1 | CCOC(=O)c1c(SCCN2CCCCC2)n(-c2ccccc2)c(=S)n(-c2ccccc2)c1=O | 12.4 µM (inactive) | 3.49 µM (inactive) | 16.3 µM (inactive) | 28.6 µM (inactive) | > 100 µM (inactive) | 16.4 µM (inactive) | 14.8 µM (inactive) | 8.85 µM (inactive) | 16.9 µM (inactive) | 14.6 µM (inactive) | 28.6 µM (inactive) | 2.28 µM (inactive) | 22.9 µM (inactive) | 15 µM (inactive) | 17.6 µM (inactive) | 2.72 µM (inactive) | 12.8 µM (inactive) | – | – | –
2 | O=C1OCCC12CN(Cc1ccccc1)N=N2 (configuration not stated) | – | – | > 100 µM (inactive) | > 100 µM (inactive) | > 100 µM (inactive) | 12.1 µM (inactive) | > 100 µM (inactive) | > 100 µM (inactive) | > 100 µM (inactive) | > 100 µM (inactive) | > 100 µM (inactive) | > 100 µM (inactive) | > 100 µM (inactive) | – | > 100 µM (inactive) | 13.2 µM (inactive) | – | 58.7 µM (inactive) | > 100 µM (inactive) | > 100 µM (inactive)
3 | COc1ccc(-c2c(C#N)c(-c3ccc(C)cc3)n(NS(=O)(=O)c3ccccc3)c(=O)c2C#N)cc1 | > 100 µM (inactive) | 19 µM (inactive) | 38.8 µM (inactive) | 48.6 µM (inactive) | > 100 µM (inactive) | > 100 µM (inactive) | 51.5 µM (inactive) | 48.1 µM (inactive) | – | 35 µM (inactive) | 42.2 µM (inactive) | 19 µM (inactive) | 58.1 µM (inactive) | > 100 µM (inactive) | 37.8 µM (inactive) | – | 30.3 µM (inactive) | 74.1 µM (inactive) | 36.6 µM (inactive) | 59 µM (inactive)
4 | CC1CNC(NS(=O)(=O)c2cc(C(=O)Nc3ccccc3)c(Cl)cc2S)=NN1 (configuration not stated) | > 100 µM (inactive) | 66.2 µM (inactive) | – | 26.4 µM (inactive) | 27.2 µM (inactive) | 31.2 µM (inactive) | 92.3 µM (inactive) | 45.3 µM (inactive) | 44.1 µM (inactive) | 29 µM (inactive) | 39.1 µM (inactive) | 49.8 µM (inactive) | 30.8 µM (inactive) | – | 67.3 µM (inactive) | 41.8 µM (inactive) | 21 µM (inactive) | > 100 µM (inactive) | 38.4 µM (inactive) | 17.7 µM (inactive)
5 | C[n+]1ccc2/c(=C\C#N)c3ccccc3n21 | < 0.01 µM (active) | 17.3 µM (inactive) | 22.4 µM (inactive) | 48.2 µM (inactive) | 37.3 µM (inactive) | 17.1 µM (inactive) | 52.2 µM (inactive) | 23.1 µM (inactive) | 11.4 µM (inactive) | 25.9 µM (inactive) | 12.9 µM (inactive) | 30.8 µM (inactive) | 36.6 µM (inactive) | – | 21.1 µM (inactive) | 18.2 µM (inactive) | 15.9 µM (inactive) | > 100 µM (inactive) | – | –
6 | CC(C)CNC(=O)Cn1c(-c2ccccc2)cc2ccccc21 | > 100 µM (inactive) | > 100 µM (inactive) | – | > 100 µM (inactive) | > 100 µM (inactive) | > 100 µM (inactive) | > 100 µM (inactive) | > 100 µM (inactive) | > 100 µM (inactive) | > 100 µM (inactive) | > 100 µM (inactive) | > 100 µM (inactive) | > 100 µM (inactive) | > 100 µM (inactive) | > 100 µM (inactive) | > 100 µM (inactive) | > 100 µM (inactive) | > 100 µM (inactive) | > 100 µM (inactive) | –
7 | Cc1ccc(S(=O)(=O)NC(=O)NC(Cc2ccc(O)c(O)c2)C(=O)O)cc1 (configuration not stated) | > 100 µM (inactive) | > 100 µM (inactive) | 80.5 µM (inactive) | > 100 µM (inactive) | > 100 µM (inactive) | > 100 µM (inactive) | 20.4 µM (inactive) | > 100 µM (inactive) | > 100 µM (inactive) | > 100 µM (inactive) | > 100 µM (inactive) | > 100 µM (inactive) | 81.8 µM (inactive) | – | > 100 µM (inactive) | – | > 100 µM (inactive) | > 100 µM (inactive) | – | > 100 µM (inactive)
8 | COc1cc(OC)c(-n2[nH]c(=O)n(C)c2=O)c(OC)c1 | > 100 µM (inactive) | > 100 µM (inactive) | – | > 100 µM (inactive) | > 100 µM (inactive) | > 100 µM (inactive) | > 100 µM (inactive) | > 100 µM (inactive) | > 100 µM (inactive) | > 100 µM (inactive) | > 100 µM (inactive) | > 100 µM (inactive) | > 100 µM (inactive) | > 100 µM (inactive) | > 100 µM (inactive) | > 100 µM (inactive) | > 100 µM (inactive) | > 100 µM (inactive) | > 100 µM (inactive) | > 100 µM (inactive)
9 | CC(Cn1c2c(c3cc(O)ccc31)CCc1ccc(O)cc1-2)N(C)C (configuration not stated) | 19.9 µM (inactive) | 64.1 µM (inactive) | – | 14.1 µM (inactive) | 19.3 µM (inactive) | 14.5 µM (inactive) | 15.5 µM (inactive) | – | 19.6 µM (inactive) | 12.4 µM (inactive) | 28.2 µM (inactive) | 35.6 µM (inactive) | 17.7 µM (inactive) | 15.8 µM (inactive) | – | 48.2 µM (inactive) | 23.4 µM (inactive) | 22.4 µM (inactive) | 16.1 µM (inactive) | 26.3 µM (inactive)
10 | CNC(=O)NCCN1CC2CCC(CC2)C1 | > 10 µM (inactive) | > 10 µM (inactive) | – | > 10 µM (inactive) | – | > 10 µM (inactive) | > 10 µM (inactive) | > 10 µM (inactive) | > 10 µM (inactive) | > 10 µM (inactive) | > 10 µM (inactive) | > 10 µM (inactive) | > 10 µM (inactive) | > 10 µM (inactive) | > 10 µM (inactive) | > 10 µM (inactive) | > 10 µM (inactive) | > 10 µM (inactive) | > 10 µM (inactive) | > 10 µM (inactive)
11 | CN(C)CCCNC(=O)c1cc(NC(=O)c2cc(NC(=O)[C@H]3C[C@@H]3C(=O)Nc3cc(C(=O)Nc4cc(C(=O)NCCCN(C)C)n(C)c4)n(C)c3)cn2C)cn1C | > 100 µM (inactive) | > 100 µM (inactive) | 3.24 µM (inactive) | > 100 µM (inactive) | > 100 µM (inactive) | > 100 µM (inactive) | > 100 µM (inactive) | – | > 100 µM (inactive) | > 100 µM (inactive) | > 100 µM (inactive) | > 100 µM (inactive) | > 100 µM (inactive) | > 100 µM (inactive) | > 100 µM (inactive) | > 100 µM (inactive) | > 100 µM (inactive) | > 100 µM (inactive) | > 100 µM (inactive) | –
12 | COC1OC2COC1(OCc1ccccc1)C1OC(C)(C)OC21 (configuration not stated) | > 100 µM (inactive) | – | – | > 100 µM (inactive) | > 100 µM (inactive) | > 100 µM (inactive) | > 100 µM (inactive) | > 100 µM (inactive) | > 100 µM (inactive) | > 100 µM (inactive) | > 100 µM (inactive) | > 100 µM (inactive) | > 100 µM (inactive) | > 100 µM (inactive) | > 100 µM (inactive) | > 100 µM (inactive) | – | > 100 µM (inactive) | – | > 100 µM (inactive)
13 | C=C1C(=O)OC2C3C(=C)[C@@H](OC(C)=O)CC3C(C)=CC(OC(=O)C(C)(O)C(C)OC(C)=O)[C@@H]12 (some centres not stated) | 9.46 µM (inactive) | 2.55 µM (inactive) | – | 7.6 µM (inactive) | 11.9 µM (inactive) | 6.7 µM (inactive) | 11.5 µM (inactive) | 14 µM (inactive) | 13.2 µM (inactive) | 16.3 µM (inactive) | 16.8 µM (inactive) | 3.04 µM (inactive) | 20.1 µM (inactive) | 13.7 µM (inactive) | 7.28 µM (inactive) | 7.41 µM (inactive) | 4.89 µM (inactive) | 2.9 µM (inactive) | 13.8 µM (inactive) | 16.7 µM (inactive)
14 | O=C1c2ccccc2-c2nc(-c3cccc([N+](=O)[O-])c3)nnc21 | 3.24 µM (inactive) | 3.07 µM (inactive) | > 100 µM (inactive) | 23 µM (inactive) | 20.1 µM (inactive) | 17.5 µM (inactive) | 30.5 µM (inactive) | – | 17.6 µM (inactive) | 40.2 µM (inactive) | 4.5 µM (inactive) | 9.73 µM (inactive) | 11.4 µM (inactive) | 21.4 µM (inactive) | 15.4 µM (inactive) | 1.11 µM (active) | – | 4.24 µM (inactive) | 22.6 µM (inactive) | –
15 | C[n+]1c(-c2ccc(/C=N/NC(=O)C(=O)N/N=C/c3ccc(-c4cn5ccccc5[n+]4C)cc3)cc2)cn2ccccc21 | > 100 µM (inactive) | > 100 µM (inactive) | > 100 µM (inactive) | > 100 µM (inactive) | > 100 µM (inactive) | > 100 µM (inactive) | > 100 µM (inactive) | – | > 100 µM (inactive) | > 100 µM (inactive) | > 100 µM (inactive) | > 100 µM (inactive) | > 100 µM (inactive) | > 100 µM (inactive) | > 100 µM (inactive) | – | – | > 100 µM (inactive) | > 100 µM (inactive) | > 100 µM (inactive)
